Experimental data reported in US10239835B2, “N-alkylaryl-5-oxyaryl-octahydro-cyclopenta[c]pyrrole negative allosteric modulators of NR2B” (Luc Therapeutics, Inc., priority 2014, dated 2019).
Where two headings read alike, the source gives them in different places.

Key:
[1] = biological target: HEK293 cells expressing NR1/NR2B (Homo sapiens (Human), UniProt Q05586+Q13224); assay: NR2B NAM Assay (FDSS Ca2+ influx cell assay); type: cell-based; conditions: NR2B NAM assay, class of inhibitory concentration; read-out: Activity Category
Chain of HEK293 cells expressing NR1/NR2B (Homo sapiens (Human), UniProt Q05586+Q13224) (Q13224 27-1484, other chains not shown): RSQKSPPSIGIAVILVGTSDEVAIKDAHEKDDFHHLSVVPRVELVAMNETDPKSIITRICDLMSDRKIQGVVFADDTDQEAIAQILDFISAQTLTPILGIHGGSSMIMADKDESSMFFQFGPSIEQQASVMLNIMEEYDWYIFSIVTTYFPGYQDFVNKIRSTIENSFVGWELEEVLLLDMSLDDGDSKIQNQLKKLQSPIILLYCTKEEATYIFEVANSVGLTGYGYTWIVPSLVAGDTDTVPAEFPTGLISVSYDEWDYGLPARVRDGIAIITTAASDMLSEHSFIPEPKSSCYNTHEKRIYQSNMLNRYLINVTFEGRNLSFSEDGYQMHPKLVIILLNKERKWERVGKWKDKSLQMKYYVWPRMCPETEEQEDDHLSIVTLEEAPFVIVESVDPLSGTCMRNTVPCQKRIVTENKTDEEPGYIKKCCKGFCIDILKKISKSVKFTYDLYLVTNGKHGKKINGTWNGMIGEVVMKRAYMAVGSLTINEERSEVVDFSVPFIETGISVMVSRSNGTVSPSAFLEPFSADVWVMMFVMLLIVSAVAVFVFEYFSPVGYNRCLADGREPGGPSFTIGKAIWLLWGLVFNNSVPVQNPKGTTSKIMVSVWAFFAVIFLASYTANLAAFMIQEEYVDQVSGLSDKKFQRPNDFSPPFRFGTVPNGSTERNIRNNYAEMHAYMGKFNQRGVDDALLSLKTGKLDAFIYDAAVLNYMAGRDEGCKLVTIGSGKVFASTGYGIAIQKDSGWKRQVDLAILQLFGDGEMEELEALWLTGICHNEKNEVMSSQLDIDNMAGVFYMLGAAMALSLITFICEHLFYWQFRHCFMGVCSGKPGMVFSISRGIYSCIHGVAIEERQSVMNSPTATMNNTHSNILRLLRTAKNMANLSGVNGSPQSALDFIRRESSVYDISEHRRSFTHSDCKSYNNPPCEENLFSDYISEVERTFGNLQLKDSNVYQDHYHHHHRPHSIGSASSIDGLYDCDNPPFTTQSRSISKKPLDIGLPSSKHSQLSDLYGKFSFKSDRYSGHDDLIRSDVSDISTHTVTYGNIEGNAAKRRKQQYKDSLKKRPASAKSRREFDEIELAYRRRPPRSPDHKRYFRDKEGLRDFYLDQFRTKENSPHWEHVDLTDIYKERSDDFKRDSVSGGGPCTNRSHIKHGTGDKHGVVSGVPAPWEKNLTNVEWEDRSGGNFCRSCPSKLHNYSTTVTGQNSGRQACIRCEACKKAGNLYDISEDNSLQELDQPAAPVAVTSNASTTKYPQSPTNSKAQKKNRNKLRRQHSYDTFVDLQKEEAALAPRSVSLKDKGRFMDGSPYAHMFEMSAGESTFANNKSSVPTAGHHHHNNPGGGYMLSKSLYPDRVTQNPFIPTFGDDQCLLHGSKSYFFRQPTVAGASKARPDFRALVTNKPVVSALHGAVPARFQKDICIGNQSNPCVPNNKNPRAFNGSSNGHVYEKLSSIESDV
Protocol: (§1) Cell Culture and plating: HEK293 cells expressing NR1/NR2B (Chantest, Cleveland, Ohio) were grown to 70-80% confluency as an adherent monolayer in standard tissue culture flasks at 37° C., 5% CO2 per supplier's instructions. NR2B expression was induced by incubation with 0.3-0.4 μg/ml tetracycline in the presence of 4 mM ARL-15896 for 18-24 hours under the same growth conditions, then transferred to 30° C. for another 3-5 hours.
(§2) After induction, cell culture medium was removed and cells were rinsed once with Ca^2+ and Mg^2+-free Dulbecco's phosphate buffered saline. Cells were then removed from the flask using TrypLE™ Express (Life Technologies) according to the manufacturer's instructions and collected to 50 ml centrifuge tubes. Following two washes in Ca^2+/Mg^2+-free HBSS with 20 mM HEPES (HHnoCa), cells were counted and viability assessed using trypan blue. To load cells with Ca^2+-sensitive dye, they were resuspended in fluo-8 plus Component B (AAT Bioquest Products) diluted in HHnoCa and incubated 15 minutes at 37° C., followed by 30 minutes at room temp (in dark). Cells were then washed and resuspended in HHnoCa to remove extracellular dye and plated in 384-well plates (Falcon, uncoated) at 20,000-30,000 cells/well in a final volume of 25 μl/well.
(§3) FDSS Assay: To each well of the plate, 10 μL test compound, control (MK801) or HHnoCa buffer was added at different concentrations to yield final concentrations of 0.001, 0.003, 0.010, 0.030, 0.100, 0.300, 1.000, 3.000, 10.000, or 30.000 uM final concentration of DMSO of 0.1%. Following 10 minutes pre-incubation in the dark, plates are loaded onto the Hamamatsu FDSS 6000. After collecting baseline fluorescence images, 3 μM glutamate, 3 μM glycine, and 1 mM Ca^2+ in HHnoCa buffer is added to each well, and Ca^2+ is recorded for 3 minutes. Data were processed by computing ratio of fluorescence at the end of data collection to baseline fluorescence to assess degree of Ca^2+ influx inhibition relative to that observed in MK801.
(§4) Table 8 below provides activity of each compound according to the legend that “++++” indicates inhibition at a concentration<100 nM; “+++” indicates inhibition at a concentration between 100 nM and 1 μM of the disclosed compound; “++” indicates inhibition at a concentration of from 1 μM to 10 μM; and “+” indicates inhibition at a concentration>10 μM.

[2] = biological target: HEK293 cells expressing NR1/NR2B (Homo sapiens (Human), UniProt Q13224); assay: NR2B NAM Assay (FDSS Ca2+ influx cell assay); type: cell-based
Chain of HEK293 cells expressing NR1/NR2B (Homo sapiens (Human), UniProt Q13224) (Q13224 27-1484, other chains not shown): as above
Protocol: as §1, §2, §3, §4

[3] = Ca2+ influx inhibition relative to MK801, 3 μM glutamate, 3 μM glycine, 1 mM Ca2+, read-out: NR2B NAM IC50

Compound	IC50 [1] [µM]	IC50 [2, 3] [µM]	IC50 ([2]; NR2B NAM assay, class of inhibitory concentration, read-out: Activity Category) [µM]
O=C(CN1C[C@H]2C[C@H](Oc3ccc(F)c(F)c3)C[C@H]2C1)c1ccc(O)cc1	< 0.1	0.0616	
Oc1ccc(C(O)CN2C[C@H]3C[C@H](Oc4ccc(F)c(F)c4)C[C@H]3C2)cc1 (stereo partly shown)	< 0.1	0.014	
O=C(CN1C[C@H]2C[C@H](Oc3ccc(F)c(F)c3)C[C@H]2C1)c1ccc(O)cn1	1 to 10	1.26	
O=C(CN1C[C@H]2C[C@H](Oc3ccc(F)cc3)C[C@H]2C1)c1ccc(O)cn1	0.1 to 1	0.699	
Oc1ccc(C(O)CN2C[C@H]3C[C@@H](Oc4ccc(F)cc4)C[C@H]3C2)cc1F (stereo partly shown)	< 0.1	0.0305	
Cc1ccc(O[C@H]2C[C@@H]3CN(CC(=O)c4ccc(O)c(F)c4)C[C@@H]3C2)cn1	1 to 10	2.37	
Cc1ccc(O[C@H]2C[C@@H]3CN(CC(O)c4ccc(O)c(F)c4)C[C@@H]3C2)cn1 (stereo partly shown)	< 0.1	0.09	
COc1ccc(O[C@@H]2C[C@@H]3CN(CC(O)c4ccc(O)cc4)C[C@@H]3C2)cc1 (stereo partly shown)	0.1 to 1	0.112	
COc1ccc(O[C@@H]2C[C@@H]3CN(CC(=O)c4ccc(O)cn4)C[C@@H]3C2)cc1	1 to 10	7.1	
Oc1ccc(C(O)CN2C[C@H]3C[C@@H](Oc4ccc(F)cc4)C[C@H]3C2)cc1 (stereo partly shown)	< 0.1	0.0178	
O=C(CN1C[C@H]2C[C@H](Oc3ccncc3)C[C@H]2C1)c1ccc(O)cc1	1 to 10	2.78	
Oc1ccc(C(O)CN2C[C@H]3C[C@H](Oc4ccncc4)C[C@H]3C2)cc1 (stereo partly shown)	1 to 10	4.47	
Cc1ncccc1O[C@H]1C[C@@H]2CN(CC(=O)c3ccc(O)cc3)C[C@@H]2C1	0.1 to 1	0.134	
Cc1ncccc1O[C@H]1C[C@@H]2CN(CC(O)c3ccc(O)cc3)C[C@@H]2C1 (stereo partly shown)	0.1 to 1	0.188	
COc1ccc(O[C@H]2C[C@@H]3CN(CC(=O)c4ccc(O)c(F)n4)C[C@@H]3C2)cc1	> 10	10	
COc1ccc(O[C@H]2C[C@@H]3CN(CC(O)c4ccc(O)c(F)n4)C[C@@H]3C2)cc1 (stereo partly shown)	1 to 10	3.29	
O=C(CN1C[C@H]2C[C@@H](Oc3cccnc3)C[C@H]2C1)c1ccc(O)cc1	1 to 10	5.22	
Oc1ccc(C(O)CN2C[C@H]3C[C@@H](Oc4cccnc4)C[C@H]3C2)cc1 (stereo partly shown)	1 to 10	8	
N#Cc1cccc(O[C@H]2C[C@@H]3CN(CC(=O)c4ccc(O)cn4)C[C@@H]3C2)c1	> 10	10	
O=C(CN1C[C@H]2C[C@H](Oc3cccc4cnccc34)C[C@H]2C1)c1ccc(O)cc1	0.1 to 1	0.409	
Oc1ccc(C(O)CN2C[C@H]3C[C@H](Oc4cccc5cnccc45)C[C@H]3C2)cc1 (stereo partly shown)	0.1 to 1	0.191	
COc1ccc(O[C@@H]2C[C@@H]3CN(CC(O)c4ccc(O)cn4)C[C@@H]3C2)cc1 (stereo partly shown)	0.1 to 1	0.44	
Oc1ccc(C(O)CN2C[C@H]3C[C@@H](Oc4ccc(F)c(F)c4)C[C@H]3C2)nc1 (stereo partly shown)	< 0.1	0.0376	
N#Cc1ccc(O[C@@H]2C[C@@H]3CN(CC(=O)c4ccc(O)cn4)C[C@@H]3C2)cc1	> 10	10	

Compound	IC50 [1] [µM]	IC50 [2, 3] [µM]	IC50 ([2]; NR2B NAM assay, class of inhibitory concentration, read-out: Activity Category) [µM]
O=C(CN1C[C@H]2C[C@@H](Oc3ccc(F)c(F)c3)C[C@H]2C1)c1ccc(O)cc1	< 0.1	0.0686	
O=C(CN1C[C@H]2C[C@H](Oc3ccccc3)C[C@H]2C1)c1ccc(O)cc1	< 0.1	0.0107	
Oc1ccc(C(O)CN2C[C@H]3C[C@H](Oc4ccccc4)C[C@H]3C2)cc1 (stereo partly shown)	< 0.1	0.00596	
O=C(CN1C[C@H]2C[C@H](Oc3cccnc3F)C[C@H]2C1)c1ccc(O)cn1	> 10	10	
COc1ncccc1O[C@H]1C[C@@H]2CN(CC(=O)c3ccc(O)cc3)C[C@@H]2C1	> 10	10	
COC(CN1C[C@H]2C[C@H](Oc3ccc(F)cc3)C[C@H]2C1)c1ccc(OCc2ccccc2)cc1 (stereo partly shown)	> 10	10	
Oc1ccc(C(O)CN2C[C@H]3C[C@H](Oc4cccnc4F)C[C@H]3C2)nc1 (stereo partly shown)	< 0.1	0.0209	
Oc1ccc(C(O)CN2C[C@H]3C[C@@H](Oc4ccc(F)c(F)c4)C[C@H]3C2)cc1 (stereo partly shown)	< 0.1	0.0807	
N#Cc1ccc(O[C@@H]2C[C@@H]3CN(CC(O)c4ccc(O)cn4)C[C@@H]3C2)cc1 (stereo partly shown)	> 10	10	
O=C(CN1C[C@H]2C[C@H](Oc3ccccc3)C[C@H]2C1)c1ccc(O)cn1	1 to 10	6.24	
O=C(CN1C[C@H]2C[C@H](Oc3cccnc3F)C[C@H]2C1)c1ccc(O)c(F)c1	> 10	10	
Oc1ccc(C(O)CN2C[C@H]3C[C@H](Oc4ccccc4F)C[C@H]3C2)cc1 (stereo partly shown)	< 0.1	0.00444	
O=C(CN1C[C@H]2C[C@H](Oc3ccccc3F)C[C@H]2C1)c1ccc(O)cc1	< 0.1	0.0168	
Oc1ccc(C(O)CN2C[C@H]3C[C@H](Oc4ccccc4)C[C@H]3C2)nc1 (stereo partly shown)	< 0.1	0.00572	
Oc1ccc(C(O)CN2C[C@H]3C[C@H](Oc4cccnc4F)C[C@H]3C2)cc1F (stereo partly shown)	< 0.1	0.0217	
O=C(CN1C[C@H]2C[C@H](Oc3ccc(F)nc3)C[C@H]2C1)c1ccc(O)cc1	< 0.1	0.0552	
O=C(CN1C[C@H]2C[C@H](Oc3ccc(F)nc3)C[C@H]2C1)c1ccc(O)cn1	> 10	10	
Oc1ccc(C(O)CN2C[C@H]3C[C@H](Oc4ccc(F)nc4)C[C@H]3C2)cc1 (stereo partly shown)	< 0.1	0.0741	
O=C(CN1C[C@H]2C[C@H](Oc3ccccc3F)C[C@H]2C1)c1ccc(O)cn1	0.1 to 1	0.219	
Oc1ccc(C(O)CN2C[C@H]3C[C@H](Oc4ccc(F)nc4)C[C@H]3C2)nc1 (stereo partly shown)	0.1 to 1	0.112	
O=C(CN1C[C@H]2C[C@H](Oc3ccc(F)cc3F)C[C@H]2C1)c1ccc(O)cn1	1 to 10	1.15	
O=C(CN1C[C@H]2C[C@H](Oc3c(F)cccc3F)C[C@H]2C1)c1ccc(O)cn1	1 to 10	1.08	
OC(CN1C[C@H]2C[C@H](Oc3ccc(F)cc3)C[C@H]2C1)c1cn[nH]c1 (stereo partly shown) [drawing 268]		1.98	1 to 10
